In ChEMBL document CHEMBL5055668 (J Med Chem, 2021):
The source made the active and inactive calls. The rule behind the calls is not given here.

Key:
BMDM [1] = assay: (§1) Induction of conversion of M2-macrophages to the M1 phenotype in CM of MC38 cells treated C57BL/6 mouse BMDM cells assessed as upregulation of Nos2 mRNA expression at 30 to 100 nM preincubated with culture medium of MC38 cells for 24 hrs followed by compound addition and measured after 24 hrs by qPCR analysis; assay type: functional, cell-based; settings: dose 30-100 nM
BMDM [2] = assay: as §1, with “down regulation” for “upregulation”, “Il10” for “Nos2”; assay type: functional, cell-based; settings: dose 30-100 nM
MC-38 [3] = assay: Antitumor activity against mouse MC38 cells allografted in C57BL6 mouse assessed as increase in Nos2 mRNA expression at 10 to 20 mg/kg, po administered daily for 2 weeks by qPCR analysis; assay type: functional, organism-based; settings: dose 10-20 mg/kg
MC-38 [4] = assay: Antiproliferative activity against mouse MC38 cells assessed as reduction in cell viability at 10 to 100 nM incubated for 24 hrs by CCK-8 assay; assay type: functional, cell-based; settings: dose 10-100 nM
BMDM [5] = assay: as §1, with “[…]” for “Nos2”; assay type: functional, cell-based; settings: dose 30-100 nM
HCT-116 = assay: Antiproliferative activity against human HCT116 cells cultured with culture medium of M2-macrophages assessed as reduction in cell viability at 10 to 100 nM incubated for 24 hrs by CCK-8 assay; assay type: functional, cell-based; settings: dose 10-100 nM
THP-1 [6] = assay: Induction of conversion of M2-macrophages to the M1 phenotype in CM of HCT116 cells treated […]-differentiated human THP-1 cells assessed as down regulation of Chil3 mRNA expression at 30 to 100 nM incubated for 24 hrs by qPCR analysis; assay type: functional, cell-based; settings: dose 30-100 nM
MC-38 [7] = assay: Antitumor activity against mouse MC38 cells allografted in C57BL6 mouse assessed as reduction in AKT phosphorylation in tumor tissue at 5 to 10 mg/kg, po administered daily for 2 weeks by Western blot analysis; assay type: functional, organism-based; settings: dose 5-10 mg/kg
MC-38 [8] = assay: Induction of conversion of M2-macrophages to the M1 phenotype in CM of MC38 cells treated C57BL/6 mouse BMDM cells transfected with CSF1R shRNA2 assessed as decrease in Tnf mRNA expression measured after 24 hrs by qPCR analysis; assay type: functional, cell-based
MC-38 [9] = assay: Antitumor activity against mouse MC38 cells allografted in C57BL6 mouse assessed as decrease in Il10 mRNA expression at 10 to 20 mg/kg, po administered daily for 2 weeks by qPCR analysis; assay type: functional, organism-based; settings: dose 10-20 mg/kg
Mus musculus = assay: Toxicity in C57BL/6 mouse allografted with mouse MC38 cells assessed as spleen damage at 5 to 20 mg/kg, po administered every day for 2 weeks by histopathological analysis; assay type: organism-based, MC-38; settings: in vivo, 336 h, dose 5-20 mg/kg
MC-38 [10] = assay: Antitumor activity against mouse MC38 cells allografted in C57BL6 mouse assessed as increase in Tnf mRNA expression at 10 to 20 mg/kg, po administered daily for 2 weeks by qPCR analysis; assay type: functional, organism-based; settings: dose 10-20 mg/kg
[11] = target: T1, Macrophage colony-stimulating factor 1 receptor (Mus musculus, UniProt P09581); assay: Binding affinity to CSF-1R in C57BL/6 mouse BMDM cells assessed as dissociation constant by SPR assay
T1 sequence (P09581 whole entry): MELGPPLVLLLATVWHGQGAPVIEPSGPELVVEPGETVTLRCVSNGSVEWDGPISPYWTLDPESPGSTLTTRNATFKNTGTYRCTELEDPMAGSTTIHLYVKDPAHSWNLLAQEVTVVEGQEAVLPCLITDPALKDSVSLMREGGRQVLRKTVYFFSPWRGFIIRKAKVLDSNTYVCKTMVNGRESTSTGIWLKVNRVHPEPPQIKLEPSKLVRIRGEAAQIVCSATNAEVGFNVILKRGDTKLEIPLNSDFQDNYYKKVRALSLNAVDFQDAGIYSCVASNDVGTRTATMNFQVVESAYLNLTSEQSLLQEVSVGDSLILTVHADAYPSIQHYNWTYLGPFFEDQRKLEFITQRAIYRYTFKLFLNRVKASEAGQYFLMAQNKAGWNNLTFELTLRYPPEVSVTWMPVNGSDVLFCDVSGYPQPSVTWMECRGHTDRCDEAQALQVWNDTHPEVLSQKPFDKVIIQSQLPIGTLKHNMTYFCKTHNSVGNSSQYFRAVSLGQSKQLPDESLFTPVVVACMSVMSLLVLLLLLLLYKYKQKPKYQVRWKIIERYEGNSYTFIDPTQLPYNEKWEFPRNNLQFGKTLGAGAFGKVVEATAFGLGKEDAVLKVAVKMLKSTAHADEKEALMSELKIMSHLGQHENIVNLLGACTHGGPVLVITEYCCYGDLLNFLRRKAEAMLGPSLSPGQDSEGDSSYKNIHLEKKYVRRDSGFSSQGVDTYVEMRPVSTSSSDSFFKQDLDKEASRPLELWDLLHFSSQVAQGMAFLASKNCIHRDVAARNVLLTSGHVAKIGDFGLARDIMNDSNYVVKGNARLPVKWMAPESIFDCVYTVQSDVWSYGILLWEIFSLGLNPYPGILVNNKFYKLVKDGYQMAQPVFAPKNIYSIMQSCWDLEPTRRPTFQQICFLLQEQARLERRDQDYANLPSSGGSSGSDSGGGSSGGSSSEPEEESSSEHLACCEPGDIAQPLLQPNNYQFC

MC-38 [12] = assay: Antitumor activity against mouse MC38 cells allografted in po dosed C57BL6 mouse assessed as inhibition of tumor growth administered daily for 2 weeks by caliper method; assay type: functional, organism-based; settings: dose 5-20 mg/kg
[13] = target: T2, Macrophage colony-stimulating factor 1 receptor (Mus musculus) (UniProt P09581); assay: Inhibition of CSF-1R signaling pathway in C57BL/6 mouse BMDM cells assessed as reduction in M-CSF induced CSF-1R phosphorylation at 100 nM preincubated for 12 hrs followed by M-CSF stimulation for 30 mins by Western blot analysis; assay type: cell-based
T2 sequence (whole entry): T1 sequence (P09581 whole entry)

BMDM [14] = assay: as §1, with “Il12” for “Nos2”; assay type: functional, cell-based; settings: dose 30-100 nM
[15] = target: T2, Macrophage colony-stimulating factor 1 receptor (Mus musculus); assay: Binding affinity to CSF-1R in C57BL/6 mouse BMDM cells assessed as increase in melting temperature at 100 nM after 1 hr by CETSA; assay type: cell-based
THP-1 [16] = assay: Induction of conversion of M2-macrophages to the M1 phenotype in CM of HCT116 cells treated […]-differentiated human THP-1 cells assessed as down regulation of Retnla mRNA expression at 30 to 100 nM incubated for 24 hrs by qPCR analysis; assay type: functional, cell-based; settings: dose 30-100 nM
[17] = target: T2, Macrophage colony-stimulating factor 1 receptor (Mus musculus); assay: Inhibition of CSF-1R signaling pathway in C57BL/6 mouse BMDM cells assessed as reduction in M-CSF induced CSF-1R phosphorylation preincubated for 12 hrs followed by M-CSF stimulation for 30 mins by Western blot analysis; assay type: cell-based; settings: dose 100.0 nM
BMDM [18] = assay: as §1, with “Tnf” for “Nos2”; assay type: functional, cell-based; settings: dose 30-100 nM

Cc1[nH]c(/C=C2\C(=O)Nc3cc(NC(=O)Nc4cc(C(C)(C)C)on4)ccc32)c(C)c1NC(=O)CN1CCN(C)CC1
Activity (BMDM [1]): Active | Activity (BMDM [2]): Active | Activity (MC-38 [3]): Active | Activity (MC-38 [4]): inactive | Activity (BMDM [5]): Active | Activity (HCT-116): Active | Activity (THP-1 [6]): Active | Activity (MC-38 [7]): Active | Activity (MC-38 [8]): Active | Activity (MC-38 [9]): Active | Activity (Mus musculus): Non-Toxic | Activity (MC-38 [10]): Active | Kd [11]: 3.4 nM | Activity (MC-38 [12]): Dose-dependent effect | inhibition [13]: Active | Activity (BMDM [14]): Active | Tm [15]: 68 °C | Activity (THP-1 [16]): Active | inhibition [17]: Dose-dependent effect | Activity (BMDM [18]): Active
